Assay results: publication PMC4414571, “Peptides of Presenilin-1 Bind the Amyloid Precursor Protein Ectodomain and Offer a Novel and Specific Therapeutic Approach to Reduce ß-Amyloid in Alzheimer’s Disease” (PLoS ONE, 2015)
Entries after “also recorded” stand apart in the source; their conditions may differ. Where two headings read alike, the source gives them in different places. Ends that are not written are not given here.

Legend:
[1] = system: NICD / γ-secretase in Jurkat cells; assay: NICD levels in extracts of Jurkat cells by ELISA (γ-secretase activity); settings: 24 h, percent control
Experimental: Jurkat cells (Sigma) were cultured in RPMI 1640 medium supplemented with 10% FCS, 2 mM L-glutamine, penicillin and streptomycin at 37°C in the presence of 5% CO2. […] After harvesting the cells, extracts were prepared by sonication in lysis buffer (Cell Signaling Technologies) supplemented with 1mM PMSF and complete protease inhibitor cocktail (Roche). The solubilized extracts were then used in ELISA assays to determine NICD levels, as a measure of γ-secretase activity, using the PathScan Cleaved Notch 1 (Val 1744) sandwich ELISA kit (Cell Signaling Technologies) according to the manufactuer’s protocols.

[2] = biological target: T1, soluble ectodomain of APP (APPs, APP 695) (Homo sapiens, UniProt P05067); assay: Biolayer interferometry, biotinylated peptides on streptavidin biosensors vs purified soluble APP (APPs); type: binding; settings: 30°C, biotinylated peptide on SA biosensors; for koff / kon / Kd: 1:1 model; for Kd: k off/k on, Kinetics Buffer (1X PBS, 0.002% Tween-20, 0.01% BSA)
T1 construct: host or cells: Sf9 insect cells (baculovirus), conditioned medium
Experimental: Sf9 cells (ATCC CRL 1711) were grown in TMN-FH complete medium (Pharmingen) in suspension and infected at a multiplicity of infection of 2 with a titred stock of recombinant virus expressing human APP695. Conditioned media and/or cells were harvested 6 days after infection. Cells and debris were removed by centrifugation (at 1000 x g for 15 min).
Recombinant baculoviruses were produced according to published protocols. A fragment containing full-length APP 695 was subcloned into the baculovirus transfer vector pBlueBac3 (Invitrogen). The resulting recombinant vector was co-transfected with baculovirus DNA into sf9 cells. Recombinant APP expression was verified by Western blot hybridization using mouse MAb against human APP (Cat # MAB348, Millipore).
APPs was purified from baculovirus conditioned medium to >95% purity, as assessed by densitometry analysis of Coomassie stained SDS PAGE gels, by Arvys Proteins, Stamford, CT, using the following strategy. The conditioned medium proteins were purified by heparin-affinity chromatography, followed by two gel filtration chromatography steps over HiPrep Sephacryl S300 columns and two steps of anion exchange chromatography on HiTrapQ columns.
The binding affinities of peptides P1, scrambled P1, P4, P5, P7 and P8 for the soluble ectodomain of APP or control IgG were measured by biolayer interferometry on an Octet RED96 System (Pall FortéBio Corp., Menlo Park, CA). This system monitors interference of light reflected from two sources (an internal reflection surface and the liquid/solid interface of a fiber optic sensor) to measure the rate of binding of molecules to the biosensor surface.
Peptides were synthesized and biotinylated at the NH2-terminus by Dr. Michael Freydkin at Biopeptides, Inc., San Diego, CA, and purified to >95% by HPLC. Biotinylated peptides were loaded onto Streptavidin (SA) biosensors (Pall FortéBio Corp.) at empirically determined concentrations. All affinity measurements were carried out in Kinetics Buffer (KB) (1X PBS, 0.002% Tween-20, and 0.01% BSA) at 30°C. Typically, the biosensors were pre-equilibrated in KB for 120s, loaded with a biotinylated peptide at optimal concentrations and times, quenched with 10 μg/ml biocytin in KB for 180s, brought to baseline in KB for 120s and transferred to wells containing purified APPs (0–200 nM). Multiple negative controls were run for each peptide including association buffer only (no APP) or with IgG replacing APP. Binding kinetics were calculated using the FortéBio Data Analysis v7.1 software. The association (k on) and dissociation (k off) rate constants were obtained by fitting the association and dissociation data to a 1:1 model. Binding affinity, KD, was calculated as k off/k on.

[3] = system: Aβ production in cell cultures; settings: cells cultured in media containing excess of the FLAG-coupled NH2-terminal domain of PS-1 (residues 1–80), ref [13], cited from earlier work
From the text: In that work we had selected the NH2-t ... || Peptide P1, comprising the first 80 amino acids of PS-1, scrambled P1 and the two large oligopeptides corresponding to the two halves of the human P1 (peptides P2 and P3, Table 1), were first synthesized and tested in vitro for their effect on the production of Aβ40 and 42.

[4] = system: Aβ deposits in mThy1-hAPP transgenic mice; assay: Plaque load / Aβ immunolabeling in brain sections of mThy1-hAPP Tg mice after intraventricular peptide infusion; type: in vivo, mouse; settings: 10 μM in PBS, two weeks infusion then two weeks rest, vs PBS controls
Experimental: These mice express mutated (London V717I and Swedish K670M/N671L) hAPP751 under the control of the neuronal murine (m)Thy-1 promoter. […] The Tg lines were maintained by crossing heterozygous Tg mice with non-Tg wild type C57BL/6 x DBA/2 F1 breeders. All animal studies were carried out according to protocols approved by the Institutional Animal Care and Use Committee of the University of California San Diego. […]
For analysis of Aβ deposits, blind-coded 40 μm vibratome sections were immunolabeled as previously described with mouse monoclonal antibodies (MAb) against human Aβ (clone 82E1, prepared against Aβ 1–16) followed by incubation with fluorescein isothiocyanate (FITC)-conjugated anti-mouse IgG (Vector Laboratories). Sections were imaged with a laser scanning confocal microscope (MRC1024, BioRad) as described and digital images were analyzed with the NIH Image 1.43 program to determine the percent area occupied by Aβ deposits. Three immunolabeled sections were analyzed per mouse and the average of individual measurements was used to calculate group means. […]

[5] = system: IMR-32 human neuroblastoma cell-line (endogenous Aβ40 or 42 production); assay: Endogenous Aβ40 and 42 production in IMR-32 culture medium by ELISA; type: cell-based; settings: for Effect on Aβ40 and 42 production in vitro (in words): 0–5 μM peptide, 24 h, IMR-32 culture medium, ELISA; for Production of total Aβ and of Aβ 40 and 42 (summary in words): Discussion summary, stated as in vitro and in vivo (mThy1-hAPP Tg mice)
Experimental: A human neuroblastoma cell-line, IMR-32 (ATCC CCL-127) was cultured in MEM Earles medium containing 10% fetal bovine serum, 2 mM L-glutamine in the presence of penicillin and streptomycin. Equal numbers of cells (0.3 x 10^6 per well) were plated on 6-well plates overnight. Peptides (0–5 μM) were added to fresh culture medium (500 μl per well) and left in the incubator for 24 hours, after which the culture medium from each well was removed and stored at -80°C in the presence of 4-(2-Aminoethyl) benzenesulfonyl fluoride hydrochloride (AEBSF) and protease inhibitors. Prior to use, the culture medium was centrifuged in an eppendorf microfuge for 5 min at 4°C, the supernatant diluted with an equal volume of sample diluent buffer (Wako) and analyzed for the presence of Aβ40 or 42 using a commercial ELISA kit (Wako).

[6] = system: Aβ 1–40 and 1–42 in mThy1-hAPP mouse brains; assay: Aβ40- and Aβ42-specific ELISA of neocortex extracts of peptide-treated mThy1-hAPP mice; type: in vivo; settings: vs PBS, 10 μM peptide infusion, two weeks then two weeks rest
Experimental: These mice express mutated (London V717I and Swedish K670M/N671L) hAPP751 under the control of the neuronal murine (m)Thy-1 promoter. […] The Tg lines were maintained by crossing heterozygous Tg mice with non-Tg wild type C57BL/6 x DBA/2 F1 breeders. All animal studies were carried out according to protocols approved by the Institutional Animal Care and Use Committee of the University of California San Diego.
Age-matched male and female mThy1-hAPP Tg mice at 6 months of age were anesthetized and under sterile conditions, a 26 gauge stainless steel cannula (Alzet Brain Infusion kit 3, Durect Corp) was stereotaxically implanted into the right ventricle using the following coordinates: –1 mm using Bregma as a reference, lateral, 1.0 mm, depth, -3.0 mm, and secured to the cranium using superglue. The cannula was connected via a 5 mm coil of V3 Biolab vinyl tubing to a model 1002 osmotic minipump (Alzet, Durect Corp) surgically placed subcutaneously beneath the shoulder blades and surgically closed. The solutions (each peptide at 10 μM in PBS) were delivered directly into lateral ventricles at a flow rate of 0.25 μl per hour (100 μl total volume) for two weeks. […]
Samples from mouse cortex and hippocampus were homogenized in ice-cold, 6 M guanidine-HCl according to published protocols. Quantification of Aβ 1–40 and 1–42 was carried out by ELISA kits (Invitrogen). […]

[7] = system: NICD (γ-secretase activity); assay: NICD levels in neocortex of treated mThy1-hAPP mice by Western blot (γ-secretase activity); type: in vivo, mouse; settings: peptide-infused mThy1-hAPP mice vs PBS, n = 5, two weeks after end of treatment
Experimental: Extracts of neocortex of mThy1-hAPP mice treated with P4, P8 or PBS only were electrophoresed on SDS gels and Western blotted with primary rabbit antibodies against NICD (Cat# 07–1232, Millipore) at 4°C overnight, followed by horse-radish peroxidase (HRP)-conjugated goat anti-rabbit IgG (Bio-Rad). The immunoreactive bands were detected by chemiluminescence (Thermo Scientific).
An optimal therapeutic approach to AD would avoid producing serious effects on other biochemically and physiologically important processes, as would occur if the cleavages of any of the other substrates of β- or γ-secretase were affected in the process of reducing the levels of Aβ. An especially well-studied example is the γ-secretase activity of PS-1 that is critically involved in the final enzymatic cleavage of Aβ from APP; it also functions in an essential developmental process that generates NICD from Notch. […] At the same time we analyzed the same tissue samples for their β-secretase (BACE-1) activity and APP expression. Extracts were prepared of the neocortex of Tg mice that had been treated with P4, P8 or PBS, and the levels of NICD were determined by Western blot analysis with a primary rabbit Ab against NICD. […]

T1 sequence (P05067 18-612 isoform P05067-4 limits assumed): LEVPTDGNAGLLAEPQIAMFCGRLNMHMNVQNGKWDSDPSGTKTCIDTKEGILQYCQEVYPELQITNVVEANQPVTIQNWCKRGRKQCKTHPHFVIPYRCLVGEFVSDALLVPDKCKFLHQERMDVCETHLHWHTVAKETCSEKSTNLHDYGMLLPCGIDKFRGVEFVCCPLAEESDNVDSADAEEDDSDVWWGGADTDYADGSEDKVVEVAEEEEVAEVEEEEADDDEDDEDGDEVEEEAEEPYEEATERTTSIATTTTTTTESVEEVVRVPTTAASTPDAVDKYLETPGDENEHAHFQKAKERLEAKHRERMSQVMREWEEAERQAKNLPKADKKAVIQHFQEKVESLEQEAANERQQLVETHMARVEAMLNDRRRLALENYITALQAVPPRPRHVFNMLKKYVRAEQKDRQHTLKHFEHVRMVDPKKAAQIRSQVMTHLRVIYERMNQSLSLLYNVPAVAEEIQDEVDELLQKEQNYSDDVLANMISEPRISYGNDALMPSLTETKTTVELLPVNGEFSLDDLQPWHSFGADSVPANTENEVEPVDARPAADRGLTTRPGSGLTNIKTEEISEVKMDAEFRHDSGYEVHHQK

In the case of `CC(C)[C@H](O)C(=O)N[C@@H](C)C(=O)N[C@@H]1C(=O)N(C)CCc2ccccc21` [Semagacestat, reference compound], the “NICD levels in Jurkat cells, γ-secretase inhibitor (in words)” value ([1]; 0–100 nM, n = 2) is reported as “inhibited in a dose-dependent manner”.
For DEEEDEELTLKYGAK [Peptide P7], the koff ([2]; Kinetics Buffer) was 0.00105 s⁻¹, the kon ([2]; Kinetics Buffer) was 104000 M⁻¹ s⁻¹ and the Kd [2] was 10.1 nM.
In the case of “FLAG-PS-1 (residues1-80): bacterially produced FLAG-PS-1 (residues1-80)”, the “Aβ production (in words)” value [3] is listed as “robust inhibition of Aβ” and the “Aβ production (in words)” value ([3]; listed as NH2-terminal domain of PS-1 (residues 1–80) coupled to the FLAG protein) is listed as “markedly inhibited”.
In the case of “PEPLSNGRP [Peptide P10, residues 47–55 of PS-1, fragment of P4]”, the “Aβ immunolabeling / Aβ load in mouse brain (in words)” value [4] is reported as “less effective but still produced statistically significant reductions in Aβ levels compared to PBS controls in the neocortex”, the “Effect on Aβ40 and 42 production in vitro (in words)” value (“Effect on Aβ40 and 42 production” below) [5] is reported as “did not give a significant reduction in Aβ in vitro; also recorded: had not shown a reduction of Aβ in vitro” and the “Aβ40/42 in neocortex extracts by ELISA (in words)” value [6] is reported as “gave reductions in Aβ load, but to a lesser extent”.
In the case of “RQVVEQDEEEDEELT [Peptide P6, residues 60–74 of PS-1]”, the “Effect on Aβ40 and 42 production” value [5] is reported as “substantial dose-dependent reduction in Aβ40 and 42” and the “Production of total Aβ and of Aβ 40 and 42 (summary in words)” value [5] is reported as “markedly reducing the production of total Aβ and of Aβ 40 and 42 in vitro and in vivo”.
For “RRSLGH [Peptide P9, residues 41–46 of PS-1, fragment of P4]”, the “Aβ immunolabeling / Aβ load in mouse brain (in words)” value [4] was “less effective but still produced statistically significant reductions in Aβ levels compared to PBS controls in the neocortex”, the “Effect on Aβ40 and 42 production” value [5] was “did not give a significant reduction in Aβ in vitro; also recorded: had not shown a reduction of Aβ in vitro” and the “Aβ40/42 in neocortex extracts by ELISA (in words)” value [6] was “gave reductions in Aβ load, but to a lesser extent”.
With RRSLGHPEPLSNGRP [Peptide P4] the koff ([2]; Kinetics Buffer) was 0.00134 s⁻¹, the kon ([2]; Kinetics Buffer) was 83600 M⁻¹ s⁻¹ and the Kd [2] was 16.1 nM. The “NICD levels in Jurkat cells, peptides (in words)” value ([1]; 0–10 μM, 450 nm, n = 2–3) was “no appreciable change in the levels of NICD” and the “NICD levels in neocortex (in words)” value [7] was “not accompanied by any significant changes in the levels of NICD”.
In the case of “SNGRPQGNSRQVVEQ [Peptide P5, residues 51–65 of PS-1]”, the “Binding to purified APPs (in words)” value ([2]; Kinetics Buffer) is reported as “no significant binding to APP”, the “Effect on Aβ40 and 42 production” value [5] is reported as “no significant effect on Aβ production” and the “Production of total Aβ and of Aβ 40 and 42 (summary in words)” value [5] is reported as “did not reduce Aβ”.
